Results on 26 compounds are retold here after US9416124B2, “Substituted 2-alkyl-1-OXO-N-phenyl-3-heteroaryl-1,2,3,4-tetrahydroisoquinoline-4-carboxamides for antimalarial therapies” (ST. JUDE CHILDREN'S RESEARCH HOSPITAL, priority 2011, dated 2016).

This assay has as its system P. falciparum 3D7. The assay can be described thus: P. falciparum drug susceptibility assay (3D7). Format: cell-based, Plasmodium falciparum. To be noted: Plasmodium falciparum; 3D7 strain; racemate unless indicated; read-out: 3D7_EC50. The protocol:
Parasites were grown as previously described in Mallari, J. P., Guiguemde, W. A., and Guy, R. K., Antimalarial activity of thiosemicarbazones and purine derived nitriles, Bioorg Med Chem Lett 19 (13), 3546 (2009). […] DMSO inhibitor stock solutions were pin-transferred (V&P Scientific) into the assay plate and background fluorescence was measured in both relevant channels (485 nm /535 nm, 612 nm /665 nm) in an Envision plate reader (PerkinElmer). Then 20 μl of a synchronized culture suspension (1% rings, 10% hematocrit) were added per well, thus making a final hematocrit and parasitemia of 5% and 1% respectively. Assay plates were incubated for 72 h and parasitemia was determined based on a modified protocol. (Smilkstein, M. et al., Simple and inexpensive fluorescence-based technique for high-throughput antimalarial drug screening. Antimicrob Agents Chemother 48 (5), 1803 (2004)). Briefly, 5 μl of mixed DNA dye solution in RPMI (5X SYBR Green I, 1 μM YOYO-3, 1% v/v Triton X-100, 1 mg/ml saponin) were added per well, assay plates were shaken for 30 s at 2000 rpm, incubated in the dark for 4 h, then read as previously described.
Regarding `N#Cc1cc(NC(=O)[C@H]2c3ccccc3C(=O)N(CC(F)(F)F)[C@@H]2c2cn[nH]c2)ccc1F` (racemic) [Example 2, N-(3-cyano-4-fluorophenyl)-1-oxo-3-(1H-pyrazol-4-yl)-2-(2,2,2-trifluoroethyl)-1,2,3,4-tetrahydroisoquinoline-4-carboxamide], the EC50 came to 0.041 µM.
With `Cn1cc([C@@H]2[C@@H](C(=O)Nc3ccc(F)c(C#N)c3)c3ccccc3C(=O)N2CC(F)(F)F)cn1` (racemic) [Example 4, N-(3-cyano-4-fluorophenyl)-3-(1-methyl-1H-pyrazol-4-yl)-1-oxo-2-(2,2,2-trifluoroethyl)-1,2,3,4-tetrahydroisoquinoline-4-carboxamide] the figure was 0.024 µM; with `N#Cc1cc(NC(=O)[C@H]2c3ccccc3C(=O)N(CC(F)(F)F)[C@@H]2c2cccnc2)ccc1F` (racemic) [Example 6, N-(3-cyano-4-fluorophenyl)-1-oxo-3-(pyridin-3-yl)-2-(2,2,2-trifluoroethyl)-1,2,3,4-tetrahydroisoquinoline-4-carboxamide], 0.054 µM; with `CC(C)CN1C(=O)c2ccccc2[C@H](C(=O)Nc2cc(Cl)cc(C#N)c2)[C@H]1c1cn[nH]c1` (racemic) [Example 7, N-(3-chloro-5-cyanophenyl)-2-isobutyl-1-oxo-3-(1H-pyrazol-4-yl)-1,2,3,4-tetrahydroisoquinoline-4-carboxamide], 0.003 µM.
For the compound `N#Cc1cc(Cl)cc(NC(=O)[C@H]2c3ccccc3C(=O)N(CC(F)(F)F)[C@@H]2c2cn[nH]c2)c1` (racemic) [Example 8, N-(3-chloro-5-cyanophenyl)-1-oxo-3-(1H-pyrazol-4-yl)-2-(2,2,2-trifluoroethyl)-1,2,3,4-tetrahydroisoquinoline-4-carboxamide], the EC50 worked out at 0.026 µM.
Under `CC(C)CN1C(=O)c2ccccc2[C@H](C(=O)Nc2cc(Cl)cc(C#N)c2)[C@H]1c1cnn(C)c1` (racemic) [Example 9, N-(3-chloro-5-cyanophenyl)-2-isobutyl-3-(1-methyl-1H-pyrazol-4-yl)-1-oxo-1,2,3,4-tetrahydroisoquinoline-4-carboxamide] stands 0.008 µM; under `Cn1cc([C@@H]2[C@@H](C(=O)Nc3cc(Cl)cc(C#N)c3)c3ccccc3C(=O)N2CC(F)(F)F)cn1` (racemic) [Example 10, N-(3-chloro-5-cyanophenyl)-3-(1-methyl-1H-pyrazol-4-yl)-1-oxo-2-(2,2,2-trifluoroethyl)-1,2,3,4-tetrahydroisoquinoline-4-carboxamide], 0.006 µM; under `CC(C)CN1C(=O)c2ccccc2[C@H](C(=O)Nc2cc(Cl)cc(C#N)c2)[C@H]1c1cccnc1` (racemic) [Example 11, N-(3-chloro-5-cyanophenyl)-2-isobutyl-1-oxo-3-(pyridin-3-yl)-1,2,3,4-tetrahydroisoquinoline-4-carboxamide], 0.02 µM.
Consider `N#Cc1cc(Cl)cc(NC(=O)[C@H]2c3ccccc3C(=O)N(CC(F)(F)F)[C@@H]2c2cccnc2)c1` (racemic) [Example 12, N-(3-chloro-5-cyanophenyl)-1-oxo-3-(pyridin-3-yl)-2-(2,2,2-trifluoroethyl)-1,2,3,4-tetrahydroisoquinoline-4-carboxamide], for which the EC50 was 0.036 µM.
With `CC(C)CN1C(=O)c2ccccc2[C@H](C(=O)Nc2cccc(C#N)c2)[C@H]1c1cn[nH]c1` (racemic) [Example 13, N-(3-cyanophenyl)-2-isobutyl-1-oxo-3-(1H-pyrazol-4-yl)-1,2,3,4-tetrahydroisoquinoline-4-carboxamide] the figure was 0.007 µM.
Under `N#Cc1cccc(NC(=O)[C@H]2c3ccccc3C(=O)N(CC(F)(F)F)[C@@H]2c2cn[nH]c2)c1` (racemic) [Example 14, N-(3-cyanophenyl)-1-oxo-3-(1H-pyrazol-4-yl)-2-(2,2,2-trifluoroethyl)-1,2,3,4-tetrahydroisoquinoline-4-carboxamide] stands 0.03 µM.
Under `CC(C)CN1C(=O)c2ccccc2[C@H](C(=O)Nc2cccc(C#N)c2)[C@H]1c1cnn(C)c1` (racemic) [Example 15, N-(3-cyanophenyl)-2-isobutyl-3-(1-methyl-1H-pyrazol-4-yl)-1-oxo-1,2,3,4-tetrahydroisoquinoline-4-carboxamide] stands 0.036 µM.
Take `Cn1cc([C@@H]2[C@@H](C(=O)Nc3cccc(C#N)c3)c3ccccc3C(=O)N2CC(F)(F)F)cn1` (racemic) [Example 16, N-(3-cyanophenyl)-3-(1-methyl-1H-pyrazol-4-yl)-1-oxo-2-(2,2,2-trifluoroethyl)-1,2,3,4-tetrahydroisoquinoline-4-carboxamide]: the EC50 amounted to 0.022 µM.
Under `CC(C)CN1C(=O)c2ccccc2[C@H](C(=O)Nc2cccc(C#N)c2)[C@H]1c1cccnc1` (racemic) [Example 17, N-(3-cyanophenyl)-2-isobutyl-1-oxo-3-(pyridin-3-yl)-1,2,3,4-tetrahydroisoquinoline-4-carboxamide] stands 0.058 µM; under `N#Cc1cccc(NC(=O)[C@H]2c3ccccc3C(=O)N(CC(F)(F)F)[C@@H]2c2cccnc2)c1` (racemic) [Example 18, N-(3-cyanophenyl)-1-oxo-3-(pyridin-3-yl)-2-(2,2,2-trifluoroethyl)-1,2,3,4-tetrahydroisoquinoline-4-carboxamide], 0.024 µM; under `CC(C)CN1C(=O)c2ccccc2[C@H](C(=O)Nc2cc(F)cc(C#N)c2)[C@H]1c1cn[nH]c1` (racemic) [Example 19, N-(3-cyano-5-fluorophenyl)-2-isobutyl-1-oxo-3-(1H-pyrazol-4-yl)-1,2,3,4-tetrahydroisoquinoline-4-carboxamide], 0.004 µM.
On to `N#Cc1cc(F)cc(NC(=O)[C@H]2c3ccccc3C(=O)N(CC(F)(F)F)[C@@H]2c2cn[nH]c2)c1` (racemic) [Example 20, N-(3-cyano-5-fluorophenyl)-1-oxo-3-(1H-pyrazol-4-yl)-2-(2,2,2-trifluoroethyl)-1,2,3,4-tetrahydroisoquinoline-4-carboxamide], for which the EC50 was 0.009 µM.
With `CC(C)CN1C(=O)c2ccccc2[C@H](C(=O)Nc2cc(F)cc(C#N)c2)[C@H]1c1cnn(C)c1` (racemic) [Example 21, N-(3-cyano-5-fluorophenyl)-2-isobutyl-3-(1-methyl-1H-pyrazol-4-yl)-1-oxo-1,2,3,4-tetrahydroisoquinoline-4-carboxamide] the figure was 0.021 µM; with `Cn1cc([C@@H]2[C@@H](C(=O)Nc3cc(F)cc(C#N)c3)c3ccccc3C(=O)N2CC(F)(F)F)cn1` (racemic) [Example 22, N-(3-cyano-5-fluorophenyl)-3-(1-methyl-1H-pyrazol-4-yl)-1-oxo-2-(2,2,2-trifluoroethyl)-l,2,3,4-tetrahydroisoquinoline-4-carboxamide], 0.009 µM.
Under `CC(C)CN1C(=O)c2ccccc2[C@H](C(=O)Nc2cc(F)cc(C#N)c2)[C@H]1c1cccnc1` (racemic) [Example 23, N-(3-cyano-5-fluorophenyl)-2-isobutyl-1-oxo-3-(pyridin-3-yl)-1,2,3,4-tetrahydroisoquinoline-4-carboxamide] stands 0.02 µM; under `N#Cc1cc(F)cc(NC(=O)[C@H]2c3ccccc3C(=O)N(CC(F)(F)F)[C@@H]2c2cccnc2)c1` (racemic) [Example 24, N-(3-cyano-5-fluorophenyl)-1-oxo-3-(pyridin-3-yl)-2-(2,2,2-trifluoroethyl)-1,2,3,4-tetrahydroisoquinoline-4-carboxamide], 0.038 µM; under `CC(C)CN1C(=O)c2ccccc2[C@H](C(=O)Nc2cccc(OC(F)(F)F)c2)[C@H]1c1cn[nH]c1` (racemic) [Example 25, 2-isobutyl-1-oxo-3-(1H-pyrazol-4-yl)-N-(3-(trifluoromethoxy)phenyl)-1,2,3,4-tetrahydroisoquinoline-4-carboxamide], 0.011 µM.
Under `O=C(Nc1cccc(OC(F)(F)F)c1)[C@H]1c2ccccc2C(=O)N(CC(F)(F)F)[C@@H]1c1cn[nH]c1` (racemic) [Example 26, 1-oxo-3-(1H-pyrazol-4-yl)-2-(2,2,2-trifluorocthyl)-N-(3-(trifluoromethoxy)phenyl)-1,2,3,4-tetrahydroisoquinoline-4-carboxamide] stands 0.019 µM.
On to `CC(C)CN1C(=O)c2ccccc2[C@H](C(=O)Nc2cccc(OC(F)(F)F)c2)[C@H]1c1cnn(C)c1` (racemic) [Example 27, 2-isobutyl-3-(1-methyl-1H-pyrazol-4-yl)-1-oxo-N-(3-(trifluoromethoxy)phenyl)-1,2,3,4-tetrahydroisoquinoline-4-carboxamide], for which the EC50 came to 0.008 µM.
Under `CC(C)CN1C(=O)c2ccccc2[C@H](C(=O)Nc2cccc(OC(F)(F)F)c2)[C@H]1c1cccnc1` (racemic) [Example 29, 2-isobutyl-1-oxo-3-(pyridin-3-yl)-N-(3-(trifluoromethoxy)phenyl)-1,2,3,4-tetrahydroisoquinoline-4-carboxamide] stands 0.025 µM.
With `O=C(Nc1cccc(OC(F)(F)F)c1)[C@H]1c2ccccc2C(=O)N(CC(F)(F)F)[C@@H]1c1cccnc1` (racemic) [Example 30, 1-oxo-3-(pyridin-3-yl)-2-(2,2,2-trifluoroethyl)-N-(3-(trifluoromethoxy)phenyl)-1,2,3,4-tetrahydroisoquinoline-4-carboxamide] the figure was 0.025 µM.
